Publication PMC6483395 (Synlett : accounts and rapid communications in synthetic …, 2017)

Biological target: T1, NapH1 (Streptomyces sp. CNQ-525, UniProt A7KH27)
T1 sequence (A7KH27 42-527): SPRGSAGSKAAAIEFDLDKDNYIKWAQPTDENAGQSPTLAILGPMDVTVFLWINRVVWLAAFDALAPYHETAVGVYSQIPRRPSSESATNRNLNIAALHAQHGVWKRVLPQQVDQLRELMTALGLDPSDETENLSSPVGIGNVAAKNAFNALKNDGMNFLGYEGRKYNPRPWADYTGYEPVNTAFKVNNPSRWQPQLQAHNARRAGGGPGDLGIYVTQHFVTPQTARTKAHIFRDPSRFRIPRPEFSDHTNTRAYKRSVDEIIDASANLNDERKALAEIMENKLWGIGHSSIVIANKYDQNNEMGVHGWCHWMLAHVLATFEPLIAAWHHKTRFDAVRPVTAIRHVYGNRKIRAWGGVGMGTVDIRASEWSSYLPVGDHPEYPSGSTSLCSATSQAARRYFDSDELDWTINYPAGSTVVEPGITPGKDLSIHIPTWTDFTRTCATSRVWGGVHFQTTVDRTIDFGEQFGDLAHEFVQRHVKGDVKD
Test: crystal structure
Assay type: binding
Details: homodimer; structures with and without vanadate

**Q.** [O]=[V]([OH])([OH])[OH] [vanadate] was tested. Which crystal structure did it give?
**A.** Its crystal structure is “we solved the three-dimensional structures of the homodimeric NapH1 with and without vanadate”.
